Like-named read-outs stand apart in the source and are kept apart here.
How the values were obtained:
[1] = tested on: S. aureus BX-1633; assay: Protective dose PD50, mice infected with lethal inoculum, oral treatment, S. aureus BX-1633; format: in vivo; settings: Staphylococcus aureus, BX1633, 120 h
[2] = tested on: S. pyogenes A20201; assay: Protective dose PD50, mice infected with lethal inoculum, oral treatment, S. pyogenes A20201; format: in vivo; settings: Streptococcus pyogenes, 120 h
[3] = tested on: H. influenza A9729; assay: Protective dose PD50, mice infected with lethal inoculum, oral treatment, H. influenza A9729; format: in vivo; settings: Mus musculus, 120 h
Source text: The structure activity correlations drawn from the foregoing in vitro studies are born out by the results of in vivo studies in mice. Table 4 is a tabulation of the protective doses for mice infected with a lethal inoculum of a bacteria. Two different bacteria were employed in the studies, one a Gram+ organism and the other a Gram- organism. The protective dose (PD50) is that dose which when administered to a group of infected mice results in 50% survival after five days. Normally untreated infected mice die within three days following injection of the lethal inoculum.
Protective Dose PD50 for Mice Infected with Lethal Inoculum

[4] = tested on: P. mirabilis A9554; assay: Protective dose PD50, mice infected with lethal inoculum, oral treatment, P. mirabilis A9554; format: in vivo
[5] = tested on: S. pyogenes; assay: In vitro activity against Streptococci (MIC), S. pyogenes; format: cell-based
[6] = tested on: S. pneumoniae; assay: In vitro activity against Streptococci (MIC), S. pneumoniae; format: cell-based; settings: Streptococcus pneumoniae
[7] = tested on: N. gonorrheae; assay: In vitro activity against Neisseria (MIC), N. gonorrheae; format: cell-based
[8] = tested on: N. meningitidis; assay: In vitro activity against Neisseria (MIC), N. meningitidis; format: cell-based
[9] = tested on: H. influenzae; assay: In vitro activity against Haemophilis (MIC), H. influenzae; format: cell-based; settings: Haemophilus influenzae, Compound 9 lot 2
[10] = tested on: B. fragilis; assay: In vitro activity against anaerobes (MIC), B. fragilis; format: cell-based; settings: Bacteroides fragilis
[11] = tested on: C. difficile A21675; assay: In vitro activity against anaerobes (MIC), C. difficile; format: cell-based; settings: Clostridioides difficile, A21675
[12] = tested on: P. acnes A21933; assay: In vitro activity against anaerobes (MIC), P. acnes; format: cell-based; settings: Cutibacterium acnes, A21933
[13] = tested on: P. anaerobius A21905; assay: In vitro activity against anaerobes (MIC), P. anaerobius; format: cell-based; settings: Peptostreptococcus anaerobius, A21905

N[C@@H](C(=O)N[C@@H]1C(=O)N2C(C(=O)O)=C(Cl)CS[C@H]12)c1ccccc1 [Cefaclor]
2.2 mg/kg: ED50 [1]
0.4 µg/mL: MIC ([9]; H. influenzae A22482) | MIC ([9]; H. influenzae A22483) | MIC [13]
0.66 µg/mL: MIC ([9]; read-out: MIC, Geometric Mean, H. influenzae, seven strains above)
100 µg/mL: MIC ([10]; B. fragilis A22053, β-lactamase (+)) | MIC ([10]; B. fragilis A22695, β-lactamase (+))
3.9 µg/mL: MIC ([10]; read-out: MIC, Geometric Mean, B. fragilis A20928-1, A21900, A20935, β-lactamase (-))
0.8 µg/mL: MIC [6] | MIC [7] | MIC ([7]; N. gonorrheae A20143, Compound 9 lot 2) | MIC ([7]; N. gonorrheae A20154, Compound 9 lot 2) | MIC ([7]; N. gonorrheae A20155, Compound 9 lot 2) | MIC ([7]; read-out: MIC, Geometric Mean) | MIC ([8]; N. meningitidis A20049) | MIC ([8]; N. meningitidis A21487, Compound 9 lot 2) | MIC ([8]; N. meningitidis A21496, Compound 9 lot 2) | MIC ([8]; N. meningitidis A21497, Compound 9 lot 2) | MIC ([8]; Neisseria meningitidis) | MIC ([8]; Neisseria meningitidis, read-out: MIC, Geometric Mean) | MIC ([9]; H. influenzae A9729) | MIC ([9]; H. influenzae A9833) | MIC ([9]; H. influenzae A20177) | MIC ([9]; H. influenzae A20193) | MIC ([9]; H. influenzae A21523) | MIC [12]
25 µg/mL: MIC [11]
3.1 µg/mL: MIC ([10]; B. fragilis A20928-1, β-lactamase (-)) | MIC ([10]; B. fragilis A20935, β-lactamase (-))
1.8: Protective Dose PD50 [4]
0.2 µg/mL: MIC ([5]; S. pyogenes A9604, Compound 9 lot 2) | MIC ([5]; S. pyogenes A15040, Compound 9 lot 2) | MIC ([5]; S. pyogenes A20065, Compound 9 lot 2) | MIC ([5]; S. pyogenes Dick, Compound 9 lot 2) | MIC ([5]; Streptococcus pyogenes) | MIC ([5]; Streptococcus pyogenes, read-out: MIC, Geometric Mean)
1.6 mg/kg: ED50 [3]
1.3 µg/mL: MIC ([6]; read-out: MIC, Geometric Mean)
0.14 mg/kg: ED50 [2]
> 100 µg/mL: MIC ([10]; B. fragilis A22021, β-lactamase (+)) | MIC ([10]; B. fragilis A22533, β-lactamase (+)) | MIC ([10]; B. fragilis A22693, β-lactamase (+)) | MIC ([10]; read-out: MIC, Geometric Mean, B. fragilis A22053, A22021, A22693, β-lactamase (+)) | MIC ([10]; read-out: MIC, Geometric Mean, B. fragilis A22695, A22533, β-lactamase (+))

— patent US4520022A, “Substituted vinyl cephalosporins” (priority 1983, dated 1985)
